# Tested on: trastuzumab (Herceptin)-resistant human breast cancer cell strain JIMT-1 xenograft tumor
# Assay: Drug efficacy on JIMT-1 tumor-bearing mice
# Format: in vivo, nu/nu nude mice
# Details: 10 mg/kg, two intraperitoneal injections, observation for 34 days
# Protocol: The tumor volumes and body weights were measured twice a week and the results were recorded.
substance,measurement,value
T-DM1,tumor inhibition rate,no inhibition effect on tumors

# From patent publication US20230165969A1, “PHARMACEUTICAL COMPOSITION COMPRISING ANTIBODY DRUG CONJUGATE AND USE THEREOF” (priority 2020, published 2023)
